Results reported in patent publication US11878050B2, “Glycoside hydrolases to treat biofilm-associated infections” (priority 2018, dated 2024).

Key:
biofilms = details: cited from earlier work; for Summary (biofilm-disrupting ability): Table 1, literature
[1] = tested on: S. aureus and P. aeruginosa biofilms; experiment: Lubbock Chronic Wound Biofilm Model (wound-like media); format: cell-based
Excerpt: Lubbock Chronic Wound Biofilm Model. The Lubbock Chronic Wound Biofilm Model, or Lubbock wound model (LWM), has been previously described [Sun Y, Dowd S E, Smith E, Rhoads D D, Wolcott R D. In vitro multispecies Lubbock chronic wound biofilm model. Wound Repair Regen. 2008; 16(6):805-13. Epub 2009/01/09. DeLeon S, Clinton A, Fowler H, Everett J, Horswill A R, Rumbaugh K P. Synergistic interactions of Pseudomonas aeruginosa and Staphylococcus aureus in an in vitro wound model. Infect Immun. 2014; 82(11):4718-28. Epub 2014/08/27. Dalton T, Dowd S E, Wolcott R D, Sun Y, Watters C, Griswold J A, et al. An in vivo polymicrobial biofilm wound infection model to study interspecies interactions. PLoS One. 2011; 6(11):e27317. Epub 2011/11/15, relevant portions incorporated herein by reference]. Briefly, wound-like media (50% bovine plasma, 45% Bolton broth, 5% laked horse blood) was inoculated with […] bacterial cells, and incubated for 48 hours, statically, at 37° C. […] Percent bacterial cell dispersal was calculated by finding the quotient of […]. Percent biomass degraded was calculated by rinsing to remove the post-treatment supernatant, weighing the remaining biomass, and finding the quotient of the post-treatment biofilm weight divided by the pre-treatment biofilm weight. […]

[2] = tested on: S. aureus and P. aeruginosa polymicrobial biofilms harvested from murine chronic wounds; experiment: Ex vivo treatment of murine chronic wound biofilms: biomass degraded; format: cell-based; details: 5% enzyme solutions, 1 hour
Excerpt: (§1) Murine chronic wound model. A murine chronic wound model has been previously described [Dalton T, Dowd S E, Wolcott R D, Sun Y, Watters C, Griswold J A, et al. An in vivo polymicrobial biofilm wound infection model to study interspecies interactions. PLoS One. 2011; 6(11):e27317. Epub 2011/11/15. Brown R L, Greenhalgh D G. Mouse models to study wound closure and topical treatment of infected wounds in healing-impaired and normal healing hosts. Wound Repair Regen. 1997; 5(2):198-204. Epub 1997/04/01. Rumbaugh K P, Diggle S P, Watters C M, Ross-Gillespie A, Griffin A S, West S A. Quorum sensing and the social evolution of bacterial virulence. Curr Biol. 2009; 19(4):341-5. Epub 2009/02/24, relevant portions incorporated herein by reference]. […] Percent dispersal, percent biomass degraded, and antibiotic tolerance were calculated as with the LWM, described above.
(§2) In order to determine if the results obtained in vitro translated to a more clinically relevant model, the inventors tested the ability of GH solutions to degrade the biomass of, and disperse the cells from, biofilms grown in vivo. […] For analysis of biomass degradation, the inventors measured the weights of the extracted wound-beds before and after treatment with GH, and compared the percent reduction in weight to that of biofilms treated with heat-inactivated GH. […]

[3] = tested on: S. aureus and P. aeruginosa biofilms; experiment: Crystal violet biomass assay; format: cell-based
Experimental: Crystal violet assay. A traditional in vitro crystal violet (CV) biomass assay was performed by inoculating the wells of a 24-well non-tissue culture treated plate (Falcon®) containing 13 mm plastic cell culture coverslips with 1:100 dilutions of overnight cultures of S. aureus and P. aeruginosa in fresh LB broth, and allowing for 48 hours of growth at 37° C., with shaking at 80 rpm. Planktonic cells were then removed via rinsing with PBS, and the biofilm-coated coverslips were treated with enzyme solutions, vehicle, or heat-inactivated controls. After treatment, the coverslips were rinsed with ddH2O, and the remaining biomass was stained with 1% CV in ddH2O for 20 minutes. Coverslips were then rinsed once more with ddH2O and transferred to fresh wells, in which the CV was eluted in 95% ethanol for 1 hour. The eluted CV from treated vs. untreated samples was quantified via absorbance of 595 nm light in a Synergy H1 Hybrid Reader (Biotek®).

[4] = tested on: S. aureus and P. aeruginosa polymicrobial biofilms harvested from murine chronic wounds; experiment: Ex vivo treatment of murine chronic wound biofilms: cell dispersal; format: cell-based; details: 5% enzyme solutions, 1 hour, vs vehicle and heat-inactivated controls
Excerpt: as §1, §2

[5] = tested on: S. aureus and P. aeruginosa; experiment: Total CFU after GH treatment in vitro (bactericidal activity); format: cell-based; details: 5% GH solutions, 30 minutes
Experimental: (§3) In vitro cell dispersal. To measure percent dispersal in vitro, the wells of a 24-well non-tissue culture treated plate (Falcon®) were inoculated with 1:100 dilutions of overnight cultures of S. aureus and P. aeruginosa, and biofilms were allowed to grow for 48 hours at 37° C., with shaking at 80 rpm. Following incubation, the supernatant was removed, and each well was gently rinsed with PBS to discard any non-attached biomass. Subsequently, wells were treated with enzyme solutions, vehicle, or heat-inactivated controls. Following treatment, the supernatant was removed and centrifuged at 11,000 rcf for 10 minutes in order to pellet the cells. Cell pellets were then re-suspended in PBS for CFU quantification. Biofilm remaining on the wells were dispersed via sonication and suspended in PBS for CFU quantification. Percent bacterial cell dispersal was calculated by finding the quotient of […].

[6] = tested on: S. aureus and P. aeruginosa biofilms; experiment: In vitro well-plate cell dispersal assay; format: cell-based; details: 5% GH solutions, 30 minutes, vs vehicle and heat-inactivated controls
Experimental: as §3

[7] = tested on: bioluminescent P. aeruginosa; experiment: Antibiotic protection and infection clearance in vivo (IVIS); set-up: species or system mice
Experimental: Glycoside hydrolase and antibiotic treatments. Established infections were treated via topical application of vehicle control, heat-inactivated GH, antibiotic alone (or in combination with heat-inactivated GH), GH alone, or GH plus antibiotic (meropenem). Briefly, woundbeds were irrigated with a 10% α-amylase and cellulase (in a 1:1 combination) solution in three separate topical infusions with 30 minutes of dwell time for each, with or without antibiotics. Septicemia was determined by monitoring animals for signs of systemic illness (lethargy, loss of appetite, labored breathing, tremors), and moribund mice were euthanized via phenobarbital injection. […] In order to image dispersal in vivo, the inventors used a Lumina II XR In Vivo Imaging System (IVIS®). Mice with established wound infections were administered GH therapy, and imaging occurred immediately following treatment, and every 4-5 hours subsequently. For experiments involving systemic antibiotic therapy, peritoneal dosing of 300 mg/kg meropenem occurred 4 hours prior to, and 8 hours following GH treatment. […]
To test if concurrent systemic or topical antibiotics can protect against dispersal-mediated septicemia, 48-hour chronic wound infections comprised of bioluminescent P. aeruginosa were treated with 10% GH as above, and monitored via IVIS for systemic spread.

Hyaluronidase [reference compound]
Summary (biofilm-disrupting ability) (biofilms): against HA-containing biofilms, dispersal

gentamicin sulfate [reference compound]
cells remaining viable after gentamicin treatment ([1]; P. aeruginosa and S. aureus co-cultured in the LWM, gentamicin alone): approximately half

cellulase
percent biomass degraded [2]: able to degrade
disassociation of biofilms cultured in wound-like media ([1]; 10%, 1 hour, 24-hour-old polymicrobial biofilms): completely disassociates
Summary (biofilm-disrupting ability) (biofilms): shown to cause the dispersal of S. aureus
biofilm inhibition / disruption in earlier studies (biofilms; literature): inhibits biofilm growth by Burkholderia cepacia and Pseudomonas aeruginosa
degradation of pre-formed biofilms (crystal violet) ([3]; 0.0025%, 10 minutes): significantly degraded
biomass of the biofilms (retention of crystal violet stain) ([3]; 0.25% GH solution, 30 minutes, 48 h biofilms): significant reduction in biomass
percent dispersal [4]: significantly more total cell dispersal
total CFU (supernatant + biofilm), bactericidal activity [5]: no bactericidal activity
percent dispersal [6]: significant amount of dispersal

C[C@@H](O)[C@H]1C(=O)N2C(C(=O)O)=C(S[C@@H]3CN[C@H](C(=O)N(C)C)C3)[C@H](C)[C@H]12 [meropenem]
protection against GH dispersal-induced dissemination ([7]; systemic meropenem (300 mg/kg) with 10% GH): prevented dissemination of P. aeruginosa
protection against GH dispersal-induced dissemination ([7]; topical meropenem (3 mg/ml) with 10% GH): prevented dissemination of P. aeruginosa
